Entries after “also recorded” stand apart in the source; their conditions may differ.
Assays:
Assay type in all cases: in vivo, rat
Long Evans rats = experiment: Liver histology in the chronic ethanol exposure model; conditions: for extents of micro- and macrosteatosis / liver histology (hepatic architecture): ethanol-fed rats; for liver histology (hepatic architecture): relative to vehicle
Source text: (§1) Chow fed control rats were also studied. Rats were monitored daily to ensure equivalent food consumption and maintenance of body weight. […] At the conclusion of the experiment, rats were anesthetized with vaporized isofluorane (SurgiVet, Inc. Waukesha, Wis.), and liver and blood were harvested for analysis. Liver tissue samples were immersion fixed in Histochoice (Amresco Corp., Solon, Ohio) and embedded in paraffin. Adjacent histological sections were stained with Hematoxylin and Eosin or Gomori's Trichrome and examined under code. In addition, liver tissue samples were snap-frozen in a dry ice methanol bath and then stored at −80° C. for later mRNA and protein studies. Throughout the experiment, rats were housed under humane conditions and kept on a 12-hour light/dark cycle with free access to food. All experiments were performed in accordance with protocols that conform to guidelines established by the National Institutes of Health and were approved by Institutional Animal Care and Use Committee at the Lifespan-Rhode Island Hospital.

[1] = test system: liver mRNA levels of albumin, ASBT, GFAP, KCR, desmin, and collagen; experiment: Liver cell profiling by qRT-PCR; conditions: for GFAP mRNA / collagen mRNA / desmin mRNA / ASBT mRNA / albumin mRNA: relative to vehicle
Source text: Adult male (˜200-250 g) Long Evans rats (Harlan Sprague Dawley, Inc., Indianapolis, Ind.) were pair-fed with isocaloric liquid diets (BioServ, Frenchtown, N.J.) containing 0% (control) or 37% ethanol by caloric content (9.2% v/v) for 8 weeks. During the week prior to initiating the experiment, rats were adapted to the ethanol-containing diets by sequentially feeding them for two days each with diets containing 8%, 17%, 24%, and then 37% ethanol. Chow fed control rats were also studied. Rats were monitored daily to ensure equivalent food consumption and maintenance of body weight. During the last 3 weeks of the experiment while being maintained on either the 0% or 37% ethanol-containing liquid diets, rats in both groups were administered twice weekly (Mondays and Thursdays) intra-peritoneal (i.p.) injections of vehicle (saline), a PPAR-α (GW7647; 25 μg/kg), PPAR δ (L-165,041; 2 μg/kg), or PPAR-γ (F-L-Leu; 20 μg/kg) agonist (CalBiochem, Carlsbad, Calif.). At the conclusion of the experiment, rats were anesthetized with vaporized isofluorane (SurgiVet, Inc. Waukesha, Wis.), and liver and blood were harvested for analysis. Liver tissue samples were immersion fixed in Histochoice (Amresco Corp., Solon, Ohio) and embedded in paraffin. Adjacent histological sections were stained with Hematoxylin and Eosin or Gomori's Trichrome and examined under code. In addition, liver tissue samples were snap-frozen in a dry ice methanol bath and then stored at −80° C. for later mRNA and protein studies. Throughout the experiment, rats were housed under humane conditions and kept on a 12-hour light/dark cycle with free access to food. All experiments were performed in accordance with protocols that conform to guidelines established by the National Institutes of Health and were approved by Institutional Animal Care and Use Committee at the Lifespan-Rhode Island Hospital.
(§2) Total RNA was extracted from liver tissue using TRIzol® reagent (Invitrogen, Carlsbad, Calif.) according to the manufacturer's protocol. RNA concentrations and purity were determined from the absorbances measured at 260 nm and 280 nm. RNA (2 μg) was reverse transcribed using the AMV First Strand cDNA synthesis kit (Roche Diagnostics Corporation, Indianapolis, Ind.) and random oligodeoxynucleotide primers. Quantitative reverse transcriptase polymerase chain reaction (qRT-PCR) assays were used to measure steady-state levels of specific mRNA transcripts. PCR amplifications were performed in 20 μl reactions containing cDNA generated from 2.5 ng of original RNA template, 300 nM each of gene specific forward and reverse primer (Table 2), and 10 μl of 2× QuantiTect SYBR Green PCR Mix (Qiagen Inc, Valencia, Calif.). The amplified signals were detected continuously with the Mastercycler ep realplex instrument and software (Eppendorf AG, Hamburg, Germany). The amplification protocol used was as follows: initial 15-minutes denaturation and enzyme activation at 95° C., 45 cycles of 95° C.×15 sec, 55°-60° C.×30 sec, and 72° C.×30 sec. Annealing temperatures were optimized using the temperature gradient program provided with the Mastercycler ep realplex software.
In preliminary studies, SYBR Green-labeled PCR products were evaluated by agarose gel electrophoresis, and authenticity was verified by nucleic acid sequencing. Complementary (c) DNAs were cloned into PCR-II vectors (Invitrogen, Carlsbad, Calif.). […] Serial dilutions of recombinant plasmid DNA containing target sequences were used as standards in PCR reactions, and regression lines generated from the Ct values of the standards were used to calculate mRNA abundance. Relative mRNA expression was expressed as the ng ratio of specific mRNA to ribosomal (r) 18S measured in the same samples because 18S is highly abundant and the levels are not modulated with disease state. Statistical comparisons were made using the calculated mRNA/18S ratios. […]

[2] = test system: insulin, IGF-I, IGF-II, their receptors, IRS-1, IRS-2, IRS-4 mRNA in liver; experiment: qRT-PCR of hepatic insulin and IGF polypeptides, their receptors, and IRS molecules; conditions: relative to vehicle; for IGF-II mRNA: chronic ethanol feeding; for IGF-I mRNA: control rats
Source text: as §1, §2
Complementary (c) DNAs were cloned into PCR-II vectors (Invitrogen, Carlsbad, Calif.). […] Serial dilutions of recombinant plasmid DNA containing target sequences were used as standards in PCR reactions, and regression lines generated from the Ct values of the standards were used to calculate mRNA abundance. Relative mRNA expression was expressed as the ng ratio of specific mRNA to ribosomal (r) 18S measured in the same samples because 18S is highly abundant and the levels are not modulated with disease state. Statistical comparisons were made using the calculated mRNA/18S ratios.

AAH and GAPDH = experiment: ELISA of AAH and GAPDH immunoreactivity in liver
Source text: as §1
ELISAs were used to measure immunoreactivity corresponding to AAH, GAPDH and β-actin (negative control). ELISAs were performed in 96-well opaque polystyrene plates (Nalge Nunc International, Rochester, N.Y.). RIPA protein extracts diluted in TBS (40 ng/100 μl) were adsorbed to the bottoms of the wells by overnight incubation at 4° C. After rinsing in TBS, the wells were blocked for 4 hours with 250 μl/well of 2% BSA in TBS. The proteins were then incubated with primary antibody (0.01-0.1 μg/ml) for 1 hour at room temperature. Immunoreactivity was detected with HRP-conjugated secondary antibody (1:10000; Pierce) and the Amplex Red soluble fluorophore (Molecular Probes). […] Binding specificity was determined from parallel negative control incubations with non-relevant antibodies, or with the primary or secondary antibody omitted. The mean levels of specific AAH, GAPDH, and β-actin immunoreactivity were used for inter-group statistical comparisons.

[3] = control livers, relative to vehicle (not statistically significant)
[4] = ethanol-exposed livers, relative to vehicle (statistically significant)

Structure (SMILES) | extents of micro- and macrosteatosis (Long Evans rats) | liver histology (hepatic architecture) (Long Evans rats) | KCR mRNA [1, 3] | collagen mRNA ([1]; controls) | desmin mRNA ([1]; ethanol-exposed livers) | KCR mRNA [1, 4] | GFAP mRNA ([1]; ethanol-exposed rats) | ASBT mRNA ([1]; ethanol-fed rats) | albumin mRNA ([1]; ethanol-fed rats) | collagen mRNA ([1]; ethanol-fed rats) | insulin gene expression ([2]; ethanol-exposed group) | AAH expression (ELISA) (AAH and GAPDH; control livers) | GAPDH expression (ELISA) (AAH and GAPDH; ethanol-exposed livers) | desmin mRNA ([1]; control group) | ASBT mRNA ([1]; control livers) | albumin mRNA ([1]; control livers) | IGF-II mRNA [2] | insulin gene expression ([2]; control group) | IGF-I mRNA [2] | further results
CC(C)(Sc1ccc(CCN(CCCCC2CCCCC2)C(=O)NC2CCCCC2)cc1)C(=O)O [PPAR-α, GW7647] | overtly reduced | reduced the disordered architecture; also recorded: strikingly reduced the ethanol-associated architectural disarray and steatosis | increased | increased | no significant effect | increased | significantly increased | significantly increased; also recorded: normalized | significantly increased; also recorded: normalized | further increased | reduced | no significant effect | no significant effect | – | – | – | – | – | – | liver histology (Long Evans rats; control rats, relative to vehicle-treated controls): no detectable histological changes in liver; also recorded: no detectable effects on liver histology; GFAP mRNA ([1]; control rats): significantly increased; GAPDH expression (ELISA) (AAH and GAPDH; control livers): no significant effect; AAH expression (ELISA) (AAH and GAPDH; ethanol-exposed livers): no significant effect
CC(C)C[C@H](NC(=O)OCC1c2ccccc2-c2ccccc21)C(=O)O [PPAR-γ, F-L-Leu] | overtly reduced | reduced the disordered architecture; also recorded: most striking improvements in liver histology; also recorded: strikingly reduced the ethanol-associated architectural disarray and steatosis; also recorded: more effective than the PPAR-α agonist in restoring hepatic architecture | increased | – | significantly increased | increased | significantly increased | did not significantly alter | did not significantly alter | significantly reduced | – | slightly reduced | significantly increased | significantly reduced | decreased | significantly increased | significantly reduced | significantly increased | significantly increased | IRS-2 mRNA ([2]; ethanol-exposed rats): significantly reduced
CCCc1c(OCCCOc2ccc(OCC(=O)O)cc2)ccc(C(C)=O)c1O [PPAR-δ, L-165,041] | overtly reduced | reduced the disordered architecture; also recorded: most striking improvements in liver histology; also recorded: strikingly reduced the ethanol-associated architectural disarray and steatosis; also recorded: more effective than the PPAR-α agonist in restoring hepatic architecture | increased | increased | no significant effect | increased | – | did not significantly alter; also recorded: normalized | significantly increased; also recorded: normalized | significantly reduced | reduced | slightly reduced | significantly increased | significantly reduced | decreased | significantly increased | significantly reduced | significantly increased | significantly increased | IRS-2 mRNA ([2]; control group): significantly increased; insulin receptor mRNA ([2]; controls): increased; IRS-4 mRNA ([2]; ethanol-exposed group): significantly reduced; insulin receptor mRNA ([2]; ethanol-fed rat livers): significantly reduced; IRS-1 mRNA ([2]; ethanol-fed rats): significantly reduced

Reference: US9717719B2, “Treatment, prevention, and reversal of alcohol-induced liver disease” (Rhode Island Hospital, priority 2006, dated 2017)
